This is an account of results in patent publication US10703757B2, “Compounds and methods for CDK8 modulation and indications therefor” (Plexxikon Inc., priority 2016, dated 2020).

Test [1] deals with CDK8 (phosphorylation of STAT1 at serine 727 in A549 cells). The test can be described thus: Cell based Phospho-STAT1 assay (IFNγ-stimulated A549 cells, AlphaLISA). The following applies: Homo sapiens, A549, A549 cells, phospho-STAT1 after IFNγ stimulation. Put shortly:
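A549 cells given serial compound dilutions for 1 h at 37 °C, then stimulated with IFNγ at 10 ng/mL final for 30 min. Lysate STAT1 Ser727 phosphorylation measured by AlphaLISA; % inhibition vs stimulated/unstimulated DMSO controls, IC50 by nonlinear regression.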
(In general: In Alpha technology, singlet oxygen from a donor bead excites a nearby acceptor bead.)

The test system of test [2] is CDK8 (TCF/LEF luciferase reporter in HCT116 cells). The test can be described thus: Cell based TCF/LEF reporter assay (HCT116+TCF/LEF luciferase). The following applies: Homo sapiens, HCT-116, 24 h. The method in brief: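 Luciferase readout was corrected for viability (CellTiter-Fluor) and scaled between DMSO high and 10 uM CCT251545 low controls, giving IC50 by nonlinear regression. Compounds, serially diluted, were incubated 24 h at 37 °C on HCT116 clones stably expressing a TCF/LEF-driven luciferase reporter.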
A general note: In a reporter assay the amount or activity of a reporter protein is the signal.

Regarding `Cc1ccc2cc(-c3cnn4cccc(N5CCC6(CCNC6=O)CC5)c34)ccc2n1` [Compound P-0168, 8-(3-(2-methylquinolin-6-yl)pyrazolo[1,5-a]pyridin-4-yl)-2,8-diazaspiro[4.5]decan-1-one], the IC50 in test [1] and in test [2] was 0.0001 to 0.1 µM throughout.
As for `Cn1ncc2cc(-c3cnn4cccc(N5CCC6(CCNC6=O)CC5)c34)ccc21` [Compound P-0169, 8-(3-(1-methyl-1H-indazol-5-yl)pyrazolo[1,5-a]pyridin-4-yl)-2,8-diazaspiro[4.5]decan-1-one], the IC50 in test [1] and in test [2] was 0.0001 to 0.1 µM in each case.
As for `Cn1cc(-c2ccc(-c3cnn4cccc(N5CCC6(CCNC6=O)CC5)c34)cc2)cn1` [Compound P-0170, 8-(3-(4-(1-methyl-1H-pyrazol-4-yl)phenyl)pyrazolo[1,5-a]pyridin-4-yl)-2,8-diazaspiro[4.5]decan-1-one], the IC50 in test [1] and in test [2] was 0.0001 to 0.1 µM each time.
As to `N#CC1CCN(c2c(-c3ccc(OCCOC4CCOCC4)cc3)cnc3[nH]ccc23)CC1` [Compound P-0171], the IC50 in test [1] and in test [2] was 0.0001 to 0.1 µM each time.
In the case of `N#CC1CC=C(c2c(-c3ccc(OCCOC4CCOCC4)cc3)cnc3[nH]ccc23)CC1` (stereo not shown) [Compound P-0172, 4-(5-(4-(2-((tetrahydro-2H-pyran-4-yl)oxy)ethoxy)phenyl)-1H-pyrrolo[2,3-b]pyridin-4-yl)cyclohex-3-ene-1-carbonitrile], the IC50 in test [1] and in test [2] was 0.0001 to 0.1 µM throughout.
`CCn1cc(-c2ccc(-c3cnc4[nH]ccc4c3N3CCC(C#N)CC3)cc2)cn1` [Compound P-0173, 1-(5-(4-(1-ethyl-1H-pyrazol-4-yl)phenyl)-1H-pyrrolo[2,3-b]pyridin-4-yl)piperidine-4-carbonitrile]: the IC50 in test [1] and in test [2] was 0.0001 to 0.1 µM in each case.
As for `N#CC1CCN(c2c(-c3ccc(-c4cnn(CC(F)(F)F)c4)cc3)cnc3[nH]ccc23)CC1` [Compound P-0174, 1-(5-(4-(1-(2,2,2-trifluoroethyl)-1H-pyrazol-4-yl)phenyl)-1H-pyrrolo[2,3-b]pyridin-4-yl)piperidine-4-carbonitrile], the IC50 in test [1] and in test [2] was 0.0001 to 0.1 µM each time.
Turning to `N#CC1CCN(c2c(-c3ccc(-c4cnn(CC5CC5)c4)cc3)cnc3[nH]ccc23)CC1` [Compound P-0177, 1-(5-(4-(1-(cyclopropylmethyl)-1H-pyrazol-4-yl)phenyl)-1H-pyrrolo[2,3-b]pyridin-4-yl)piperidine-4-carbonitrile], the IC50 in test [1] and in test [2] was 0.0001 to 0.1 µM each time.
With `N#CC1CC=C(c2cccn3ncc(-c4ccc(OCC(O)CN5CCOCC5)cc4)c23)CC1` (stereo not shown) [Compound P-0178, 4-(3-(4-(2-hydroxy-3-morpholinopropoxy)phenyl)pyrazolo[1,5-a]pyridin-4-yl)cyclohex-3-ene-1-carbonitrile], the IC50 in test [1] and in test [2] was 0.0001 to 0.1 µM each time.
`N#CC1CC=C(c2cccn3ncc(-c4ccc(OCCCN5CCCCC5)cc4)c23)CC1` (stereo not shown) [Compound P-0180, 4-(3-(4-(3-(piperidin-1-yl)propoxy)phenyl)pyrazolo[1,5-a]pyridin-4-yl)cyclohex-3-ene-1-carbonitrile]: the IC50 in test [1] and in test [2] was 0.0001 to 0.1 µM in each case.
Take `N#CC1CC=C(c2cccn3ncc(-c4ccc(OCCN5CCCCC5)cc4)c23)CC1` (stereo not shown) [Compound P-0181, 4-(3-(4-(2-(piperidin-1-yl)ethoxy)phenyl)pyrazolo[1,5-a]pyridin-4-yl)cyclohex-3-ene-1-carbonitrile]: the IC50 in test [1] and in test [2] was 0.0001 to 0.1 µM in each case.
Regarding `N#CC1CC=C(c2cccn3ncc(-c4ccc(OCC5CCCCO5)cc4)c23)CC1` (stereo not shown) [Compound P-0182, 4-(3-(4-((tetrahydro-2H-pyran-2-yl)methoxy)phenyl)pyrazolo[1,5-a]pyridin-4-yl)cyclohex-3-ene-1-carbonitrile], the IC50 in test [1] and in test [2] was 0.0001 to 0.1 µM in each case.
For `N#CC1CC=C(c2cccn3ncc(-c4ccc(OCCN5CCOCC5)cc4)c23)CC1` (stereo not shown) [Compound P-0183, 4-(3-(4-(2-morpholino-ethoxy)phenyl)pyrazolo[1,5-a]pyridin-4-yl)cyclohex-3-ene-1-carbonitrile], the IC50 in test [1] and in test [2] was 0.0001 to 0.1 µM throughout.
Take `Cn1cc(C#Cc2cnc3[nH]ccc3c2C2=CCC(C#N)CC2)cn1` (stereo not shown) [Compound P-0184, 4-[5-[2-(1-methylpyrazol-4-yl)ethynyl]-H-pyrrolo[2,3-b]pyridin-4-yl]cyclohex-3-ene-1-carbonitrile]: the IC50 in test [1] lay within 0.0001 to 0.1 µM; in test [2] it was 0.1 to 1 µM.
With `Cn1cc(-c2ccc(-c3cnn4cccc(C5=CCN(C(N)=O)CC5)c34)cc2)cn1` [Compound P-0185, 4-[3-[4-(1-methylpyrazol-4-yl)phenyl]pyrazolo[1,5-a]pyridin-4-yl]-3,6-dihydro-2H-pyridine-1-carboxamide], the IC50 lay within 0.1 to 1 µM in test [1] and 1 to 10 µM in test [2].
Take `Cc1ccc2cc(-c3cnn4ccnc(C5=CCC(C#N)CC5)c34)ccc2n1` (stereo not shown) [Compound P-0186, 4-(3-(2-methylquinolin-6-yl)pyrazolo[1,5-a]pyrazin-4-yl)cyclohex-3-ene-1-carbonitrile]: the IC50 in test [1] and in test [2] was 0.0001 to 0.1 µM each time.
Take `Cc1ccc2cc(-c3cnn4ccnc(C5CCC(C#N)CC5)c34)ccc2n1` (stereo not shown) [Compound P-0187, 4-(3-(2-methylquinolin-6-yl)pyrazolo[1,5-a]pyrazin-4-yl)cyclohexane-1-carbonitrile]: the IC50 in test [1] and in test [2] was 0.0001 to 0.1 µM throughout.
Turning to `N#CC1CC=C(c2cccn3ncc(-c4ccc(Cl)cc4)c23)CC1` (stereo not shown) [Compound P-0188, 4-(3-(4-chlorophenyl)pyrazolo[1,5-a]pyridin-4-yl)cyclohex-3-ene-1-carbonitrile], the IC50 in test [1] and in test [2] was 0.0001 to 0.1 µM in each case.
Take `N#CC1CCN(c2c(-c3ccc4c(c3)NC(=O)C4)cnc3[nH]ccc23)CC1` [Compound P-0189, 1-(5-(2-oxoindolin-6-yl)-1H-pyrrolo[2,3-b]pyridin-4-yl)piperidine-4-carbonitrile]: the IC50 in test [1] and in test [2] was 0.0001 to 0.1 µM throughout.
`COc1ccc2cc(-c3cnc4[nH]ccc4c3C3=CCC(C#N)CC3)ccc2n1` (stereo not shown) [Compound P-0190, 4-(5-(2-methoxyquinolin-6-yl)-1H-pyrrolo[2,3-b]pyridin-4-yl)cyclohex-3-ene-1-carbonitrile]: the IC50 in test [1] and in test [2] was 0.0001 to 0.1 µM throughout.
For `CC(C)(O)C#Cc1cccn2ncc(-c3ccc4cc(C(N)=O)ccc4c3)c12` [Compound P-0191, 6-(4-(3-hydroxy-3-methylbut-1-yn-1-yl)pyrazolo[1,5-a]pyridin-3-yl)-2-naphthamide], the IC50 in test [1] is 0.0001 to 0.1 µM; in test [2], 0.1 to 1 µM.
The like results for `N#CC1CCC(c2cccn3ncc(-c4ccc5cc(C(=O)O)ccc5c4)c23)CC1` (stereo not shown) [Compound P-0193, 6-(4-(4-cyanocyclohexyl)pyrazolo[1,5-a]pyridin-3-yl)-2-naphthoic acid] were, in that order, 0.1 to 1 µM and 1 to 10 µM.
In the case of `Cc1ccc2cc(-c3cnn4cccc(C5CCC(C#N)CC5)c34)ccc2n1` (stereo not shown) [Compound P-0194, 4-(3-(2-methylquinolin-6-yl)pyrazolo[1,5-a]pyridin-4-yl)cyclohexane-1-carbonitrile], the IC50 in test [1] and in test [2] was 0.0001 to 0.1 µM in each case.

For orientation: IC50 means the midpoint of a concentration-inhibition curve. Low values mean higher potency, high ones lower potency.
